Data as given in ChEMBL document CHEMBL4043168, “The design and SAR of a novel series of 2-aminopyridine based LRRK2 inhibitors” (Bioorg Med Chem Lett, 2017).

Columns and labels:
[1] = biological target: Ribosomal protein S6 kinase alpha-1 (Homo sapiens) (UniProt Q15418); experiment: Inhibition of RSK1 conserved Lys2 (DLKPENILLDEEGHIK) in human PBMC at 0.1 uM
[2] = biological target: Mitogen-activated protein kinase kinase kinase 1 (Homo sapiens) (UniProt Q13233); experiment: Inhibition of MAP3K1 conserved Lys2 (DVKGANLLIDSTGQR) in human PBMC at 1 uM
[3] = biological target: T1, Serine/threonine-protein kinase LATS1 (Homo sapiens) (UniProt O95835); experiment: Inhibition of LATS1 conserved Lys2 (DIKPDNILIDR) in human PBMC at 1 uM
T1 sequence (whole entry): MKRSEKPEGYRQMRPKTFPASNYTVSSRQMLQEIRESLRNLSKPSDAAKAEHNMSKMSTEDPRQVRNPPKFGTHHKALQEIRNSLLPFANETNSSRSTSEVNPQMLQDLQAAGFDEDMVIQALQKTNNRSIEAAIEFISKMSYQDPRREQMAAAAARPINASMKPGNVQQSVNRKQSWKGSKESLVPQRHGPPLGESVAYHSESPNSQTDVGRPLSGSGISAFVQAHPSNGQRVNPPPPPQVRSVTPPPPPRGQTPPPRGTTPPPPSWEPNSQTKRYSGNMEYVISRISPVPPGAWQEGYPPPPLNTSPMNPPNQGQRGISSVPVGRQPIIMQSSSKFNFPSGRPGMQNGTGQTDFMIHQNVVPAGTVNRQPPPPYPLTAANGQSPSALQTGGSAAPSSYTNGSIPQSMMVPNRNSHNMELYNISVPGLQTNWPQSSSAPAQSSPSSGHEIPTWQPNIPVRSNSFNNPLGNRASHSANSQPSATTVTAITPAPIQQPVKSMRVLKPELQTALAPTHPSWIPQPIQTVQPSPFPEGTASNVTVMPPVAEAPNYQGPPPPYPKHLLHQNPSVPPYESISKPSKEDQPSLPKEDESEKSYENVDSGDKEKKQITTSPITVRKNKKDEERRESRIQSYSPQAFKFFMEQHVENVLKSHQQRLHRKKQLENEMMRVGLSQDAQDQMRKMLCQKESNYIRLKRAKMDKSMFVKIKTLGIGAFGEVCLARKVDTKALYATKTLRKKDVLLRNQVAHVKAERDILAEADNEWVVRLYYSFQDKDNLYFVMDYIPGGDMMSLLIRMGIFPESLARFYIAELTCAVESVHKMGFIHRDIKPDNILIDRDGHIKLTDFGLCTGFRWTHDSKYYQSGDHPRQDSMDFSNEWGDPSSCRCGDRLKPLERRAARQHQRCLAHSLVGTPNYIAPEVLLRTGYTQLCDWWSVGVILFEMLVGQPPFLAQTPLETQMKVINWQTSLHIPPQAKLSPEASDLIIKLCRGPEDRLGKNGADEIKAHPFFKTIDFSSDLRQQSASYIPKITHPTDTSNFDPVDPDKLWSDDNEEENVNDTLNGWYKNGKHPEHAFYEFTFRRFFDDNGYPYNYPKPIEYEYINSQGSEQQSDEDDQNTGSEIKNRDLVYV

[4] = biological target: Serine/threonine-protein kinase PLK1 (Homo sapiens) (UniProt P53350); experiment: Inhibition of PLK1 conserved Lys1 (CFEISDADTKEVFAGKIVPK) in human PBMC at 0.1 uM
[5] = biological target: Phosphatidylinositol 5-phosphate 4-kinase type-2 gamma (Homo sapiens) (UniProt Q8TBX8); experiment: Inhibition of PIP4K2C ATP binding site (TLVIKEVSSEDIADMHSNLSNYHQYIVK) in human PBMC at 1 uM
[6] = biological target: Calcium/calmodulin-dependent protein kinase type II subunit delta (Homo sapiens) (UniProt Q13557); experiment: Inhibition of CaMK2d labeling at conserved Lys2 (DLKPENLLLASK) in human PBMC at 1 uM
[7] = biological target: Cyclin-dependent kinase 2 (Homo sapiens) (UniProt P24941); experiment: Inhibition of CDK2 labeling at conserved Lys1 (LTGEVVALKK) in human PBMC at 0.1 uM
[8] = biological target: Serine/threonine-protein kinase tousled-like 1 (Homo sapiens) (UniProt Q9UKI8); experiment: Inhibition of TLK1 conserved Lys2 (YLNEIKPPIIHYDLKPGNILLVDGTACGEIK) in human PBMC at 0.1 uM
[9] = biological target: Mitogen-activated protein kinase kinase kinase 2 (Homo sapiens) (UniProt Q9Y2U5); experiment: Inhibition of MAP3K2 conserved Lys2 (DIKGANILR) in human PBMC at 1 uM
[10] = biological target: Tyrosine-protein kinase HCK (Homo sapiens) (UniProt P08631); experiment: Inhibition of HCK activation Loop (EGAKFPIKWTAPEAINFGSFTIK) in human PBMC at 1 uM
[11] = biological target: Myosin light chain kinase, smooth muscle (Homo sapiens) (UniProt Q15746); experiment: Inhibition of smMLCK conserved Lys2 (QGIVHLDLKPENIMCVNK) in human PBMC at 0.1 uM
Sequence of Myosin light chain kinase, smooth muscle (Homo sapiens) (Q15746 whole entry): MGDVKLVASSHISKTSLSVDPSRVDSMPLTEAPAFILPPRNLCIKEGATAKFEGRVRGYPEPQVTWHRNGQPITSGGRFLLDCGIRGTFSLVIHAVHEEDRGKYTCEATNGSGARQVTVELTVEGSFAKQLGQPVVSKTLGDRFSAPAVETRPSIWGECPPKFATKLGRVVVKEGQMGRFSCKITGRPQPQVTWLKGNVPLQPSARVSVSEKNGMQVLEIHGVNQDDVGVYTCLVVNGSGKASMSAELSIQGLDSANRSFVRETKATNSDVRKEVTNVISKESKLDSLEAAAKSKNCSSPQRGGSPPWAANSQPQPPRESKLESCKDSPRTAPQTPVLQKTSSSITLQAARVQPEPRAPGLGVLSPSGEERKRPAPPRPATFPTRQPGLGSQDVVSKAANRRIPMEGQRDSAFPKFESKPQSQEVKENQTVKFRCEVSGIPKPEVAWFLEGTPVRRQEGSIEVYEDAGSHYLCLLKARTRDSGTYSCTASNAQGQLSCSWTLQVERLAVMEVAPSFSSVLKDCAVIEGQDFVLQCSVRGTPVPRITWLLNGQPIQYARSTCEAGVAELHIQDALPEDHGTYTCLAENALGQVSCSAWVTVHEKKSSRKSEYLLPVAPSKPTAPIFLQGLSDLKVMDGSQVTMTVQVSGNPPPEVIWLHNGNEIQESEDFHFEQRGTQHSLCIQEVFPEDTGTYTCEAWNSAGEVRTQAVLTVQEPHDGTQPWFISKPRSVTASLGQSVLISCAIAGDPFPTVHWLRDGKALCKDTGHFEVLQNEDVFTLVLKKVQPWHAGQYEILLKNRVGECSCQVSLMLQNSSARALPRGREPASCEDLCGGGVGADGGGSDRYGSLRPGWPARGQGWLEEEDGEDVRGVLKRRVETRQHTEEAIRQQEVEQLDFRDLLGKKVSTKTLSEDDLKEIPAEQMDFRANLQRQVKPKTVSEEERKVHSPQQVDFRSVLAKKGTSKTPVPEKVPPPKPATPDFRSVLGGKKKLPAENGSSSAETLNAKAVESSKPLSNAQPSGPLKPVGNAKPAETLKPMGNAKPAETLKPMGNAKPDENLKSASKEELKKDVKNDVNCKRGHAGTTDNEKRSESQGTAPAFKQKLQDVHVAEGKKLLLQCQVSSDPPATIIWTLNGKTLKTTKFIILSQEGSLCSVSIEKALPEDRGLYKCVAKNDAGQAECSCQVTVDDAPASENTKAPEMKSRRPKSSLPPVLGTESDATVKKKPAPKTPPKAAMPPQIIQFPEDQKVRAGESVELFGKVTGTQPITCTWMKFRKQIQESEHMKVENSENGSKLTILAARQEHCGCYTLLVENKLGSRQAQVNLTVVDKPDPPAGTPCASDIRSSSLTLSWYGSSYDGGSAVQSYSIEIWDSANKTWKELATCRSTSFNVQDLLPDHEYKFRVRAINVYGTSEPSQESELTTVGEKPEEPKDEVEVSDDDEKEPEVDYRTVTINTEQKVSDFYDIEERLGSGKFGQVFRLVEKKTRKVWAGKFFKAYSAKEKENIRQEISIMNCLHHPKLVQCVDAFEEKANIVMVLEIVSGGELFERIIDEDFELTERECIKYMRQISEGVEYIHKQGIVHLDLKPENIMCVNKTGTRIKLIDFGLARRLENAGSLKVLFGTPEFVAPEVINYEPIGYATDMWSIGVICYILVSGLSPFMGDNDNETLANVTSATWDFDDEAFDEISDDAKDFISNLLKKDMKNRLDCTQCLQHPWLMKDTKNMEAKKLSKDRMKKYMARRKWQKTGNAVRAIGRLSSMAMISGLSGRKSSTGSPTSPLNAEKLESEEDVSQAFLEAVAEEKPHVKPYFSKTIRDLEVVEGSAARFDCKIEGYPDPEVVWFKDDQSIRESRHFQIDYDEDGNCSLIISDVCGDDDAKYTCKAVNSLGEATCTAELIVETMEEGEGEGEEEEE

Sequence of Serine/threonine-protein kinase tousled-like 1 (Homo sapiens) (Q9UKI8 whole entry): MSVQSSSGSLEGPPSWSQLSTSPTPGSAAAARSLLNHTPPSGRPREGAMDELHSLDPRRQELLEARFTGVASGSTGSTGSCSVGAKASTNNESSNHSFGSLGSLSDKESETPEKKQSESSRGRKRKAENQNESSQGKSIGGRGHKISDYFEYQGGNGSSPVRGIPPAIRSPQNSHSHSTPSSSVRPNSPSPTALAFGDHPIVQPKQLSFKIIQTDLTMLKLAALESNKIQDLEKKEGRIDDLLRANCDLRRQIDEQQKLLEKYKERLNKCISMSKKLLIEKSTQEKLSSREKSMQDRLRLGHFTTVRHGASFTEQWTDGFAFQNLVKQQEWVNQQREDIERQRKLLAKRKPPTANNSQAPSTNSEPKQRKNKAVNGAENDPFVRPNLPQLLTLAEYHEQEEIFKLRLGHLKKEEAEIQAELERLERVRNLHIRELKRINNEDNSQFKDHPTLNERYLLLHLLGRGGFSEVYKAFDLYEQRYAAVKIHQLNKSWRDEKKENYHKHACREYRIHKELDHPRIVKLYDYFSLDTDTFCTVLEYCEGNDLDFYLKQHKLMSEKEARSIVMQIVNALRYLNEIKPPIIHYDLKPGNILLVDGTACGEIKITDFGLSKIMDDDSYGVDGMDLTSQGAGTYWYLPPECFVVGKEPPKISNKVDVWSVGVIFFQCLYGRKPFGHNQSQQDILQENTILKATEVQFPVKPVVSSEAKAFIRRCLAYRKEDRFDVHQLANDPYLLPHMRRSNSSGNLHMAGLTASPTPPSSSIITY
Sequence of Tyrosine-protein kinase HCK (Homo sapiens) (P08631 2-526 limits assumed): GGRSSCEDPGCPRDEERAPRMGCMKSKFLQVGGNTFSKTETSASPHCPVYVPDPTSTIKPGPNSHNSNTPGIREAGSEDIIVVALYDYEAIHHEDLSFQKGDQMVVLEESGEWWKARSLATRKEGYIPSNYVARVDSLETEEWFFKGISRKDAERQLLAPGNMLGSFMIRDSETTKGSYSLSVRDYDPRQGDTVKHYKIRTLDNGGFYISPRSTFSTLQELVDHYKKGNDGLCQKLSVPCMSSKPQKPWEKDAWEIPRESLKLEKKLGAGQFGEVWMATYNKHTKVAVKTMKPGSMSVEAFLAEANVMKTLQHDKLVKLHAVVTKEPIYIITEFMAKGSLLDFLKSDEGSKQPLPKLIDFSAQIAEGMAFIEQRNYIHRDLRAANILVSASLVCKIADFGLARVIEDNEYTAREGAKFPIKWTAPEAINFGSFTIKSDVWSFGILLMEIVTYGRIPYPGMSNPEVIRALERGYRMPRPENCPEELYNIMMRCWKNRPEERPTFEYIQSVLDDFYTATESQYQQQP
Sequence of Ribosomal protein S6 kinase alpha-1 (Homo sapiens) (Q15418 whole entry): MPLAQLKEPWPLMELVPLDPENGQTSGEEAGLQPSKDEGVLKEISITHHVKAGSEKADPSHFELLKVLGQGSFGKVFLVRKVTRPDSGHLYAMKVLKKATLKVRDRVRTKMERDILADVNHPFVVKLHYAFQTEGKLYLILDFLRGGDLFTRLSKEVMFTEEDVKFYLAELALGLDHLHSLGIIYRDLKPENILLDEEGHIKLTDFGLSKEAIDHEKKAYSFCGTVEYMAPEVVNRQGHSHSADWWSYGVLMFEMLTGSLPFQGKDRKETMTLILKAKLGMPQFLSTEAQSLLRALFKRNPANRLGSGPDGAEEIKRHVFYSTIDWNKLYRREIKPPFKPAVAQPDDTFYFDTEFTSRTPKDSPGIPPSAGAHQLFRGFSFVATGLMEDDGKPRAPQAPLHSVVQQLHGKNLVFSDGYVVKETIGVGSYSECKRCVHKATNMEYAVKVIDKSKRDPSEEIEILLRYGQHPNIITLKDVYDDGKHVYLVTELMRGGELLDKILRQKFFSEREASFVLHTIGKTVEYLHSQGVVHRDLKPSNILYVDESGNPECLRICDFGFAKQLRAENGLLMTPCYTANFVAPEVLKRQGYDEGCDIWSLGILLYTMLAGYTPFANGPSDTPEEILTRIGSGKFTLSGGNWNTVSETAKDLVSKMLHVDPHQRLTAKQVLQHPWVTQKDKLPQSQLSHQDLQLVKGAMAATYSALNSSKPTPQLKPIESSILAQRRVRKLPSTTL
Sequence of Serine/threonine-protein kinase PLK1 (Homo sapiens) (P53350 whole entry): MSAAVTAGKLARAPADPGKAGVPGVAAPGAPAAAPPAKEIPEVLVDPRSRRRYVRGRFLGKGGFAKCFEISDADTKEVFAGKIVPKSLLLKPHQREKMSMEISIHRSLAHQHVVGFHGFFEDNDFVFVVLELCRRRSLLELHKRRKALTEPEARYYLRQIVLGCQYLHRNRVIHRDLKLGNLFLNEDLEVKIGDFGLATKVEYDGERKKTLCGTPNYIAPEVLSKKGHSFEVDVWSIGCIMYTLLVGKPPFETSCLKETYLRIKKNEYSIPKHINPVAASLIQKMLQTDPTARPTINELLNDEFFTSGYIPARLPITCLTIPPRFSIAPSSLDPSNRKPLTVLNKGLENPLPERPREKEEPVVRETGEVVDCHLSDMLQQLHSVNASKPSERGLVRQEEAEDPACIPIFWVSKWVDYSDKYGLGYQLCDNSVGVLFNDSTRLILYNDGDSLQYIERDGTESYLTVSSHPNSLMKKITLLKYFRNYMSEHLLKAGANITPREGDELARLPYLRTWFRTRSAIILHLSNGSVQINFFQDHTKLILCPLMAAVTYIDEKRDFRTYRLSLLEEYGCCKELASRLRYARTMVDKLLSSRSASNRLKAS
Sequence of Phosphatidylinositol 5-phosphate 4-kinase type-2 gamma (Homo sapiens) (Q8TBX8 whole entry): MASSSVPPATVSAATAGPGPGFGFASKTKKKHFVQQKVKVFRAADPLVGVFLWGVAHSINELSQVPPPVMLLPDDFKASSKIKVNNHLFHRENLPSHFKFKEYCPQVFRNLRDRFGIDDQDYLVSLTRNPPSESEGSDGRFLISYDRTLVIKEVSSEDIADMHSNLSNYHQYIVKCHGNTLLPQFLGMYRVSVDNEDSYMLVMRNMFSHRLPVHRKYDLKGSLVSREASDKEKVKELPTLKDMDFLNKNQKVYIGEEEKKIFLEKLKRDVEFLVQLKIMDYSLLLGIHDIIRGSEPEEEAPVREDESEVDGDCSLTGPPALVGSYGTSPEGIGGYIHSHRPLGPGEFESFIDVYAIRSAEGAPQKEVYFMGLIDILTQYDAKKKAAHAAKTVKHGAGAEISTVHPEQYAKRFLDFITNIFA

Work on CC(C)n1cc(-c2cc(-c3ccc(CN4CCOCC4)cc3)cnc2N)nn1 yielded an inhibition [1] of 11.8%, an inhibition [2] of 83.3% and an inhibition [3] of 30.9%. It also gave an inhibition [4] of 24.7%, an inhibition [5] of 6.4% and an inhibition [6] of -0.4%. For the same compound, the inhibition [7] was 23.4%, the inhibition [8] was -3.1% and the inhibition [9] was 29.2%. It also gave an inhibition [10] of -2.2% and an inhibition [11] of 11.3%.
